One series deals with HIV. Kind of series: Inhibition of HIV infection (Table 1). The series is classed as cell-based, human immunodeficiency virus.
The next series deals with HSV. Kind of series: Inhibition of HSV infection (Table 1). The series is classed as cell-based, herpes simplex virus. The following applies: for IC50: read-out: IC50 ± STD (nM) (N = x) HSV.
The subject of a further series is NDV. Nature of the series: microbe, parasite or virus in culture. The format is cell-based, Newcastle disease virus. Particulars: for IC50: read-out: IC50 ± STD (nM) (N = x) NDV.
Series [1] can be described thus: Absorption spectra of compounds in DMSO. The format is physicochemical. The following applies: for Abs Max: 100 μM in DMSO; for Relative integrated area from 400 to 700 nm: area under absorption curve, JL001 = 100.
Another series relates to Hela cells. Kind of series: Cytotoxicity by MTT assay in dark or under light. The format is cell-based. Particulars: Homo sapiens, exposed for 1 hour to light, MTT 24 hours later, read-out: concentration triggering death of 50% of treated cells. For orientation: Tetrazolium dyes change colour on reduction, which living cells bring about.
Series [2] concerns lipid-enveloped viruses. Nature of the series: organism not typed. The following applies: read-out: IC50 inhibition of infection of lipid-enveloped viruses. The format is cell-based.
Series [3] has as its system cytomegalovirus (CMV, herpesvirus). The series is classed as cell-based.
Series [4] relates to Semliki forest virus (SFV, alphavirus). The series is classed as cell-based.
The nature of series [5]: Clinical observations after single dose in PK study. Particulars: for toxicity in vivo compared to the rhodanine derivatives: gavage, intravenous or intraperitoneal administration in mice.
The nature of series [6]: Pharmacokinetic profile after single po, ip or iv administration. Particulars: for bioavailability: female, Balb/c, mouse, plasma.
The nature of series [7]: KT rate constant (Table 1). The following applies: values are KT × 10^−7. The format is physicochemical.
A further series has as its system Toxoplasma gondii. Kind of series: Toxoplasma gondii attachment and invasion of HFFs. The following applies: 10 μM, normalized to DMSO control, preliminary. The format is cell-based.
A further series has as its system HIV (IIIB). Kind of series: HIV inactivation in packed red blood cells, TZM-BL luciferase readout. The following applies: 100 μM, 1 h white light, hematocrit 80%. The format is cell-based, human immunodeficiency virus.
Series [8] concerns lipid-enveloped viruses. The following applies: reference [1], cited from earlier work.
[9] abbreviates: number of experiments in parentheses.
The mark [10] stands for this setting: Human immunodeficiency virus 1, number of experiments in parentheses, read-out: IC50 ± STD (nM) (N = x) HIV.

The structures appear in SMILES notation. Where two headings read alike, the source gives them in different places.

For the molecule `CCN1C(=O)S/C(=C\c2ccc(-c3ccccc3)o2)C1=O` [JL025, reference compound], the “IC50 ± STD (nM) (N = x) HIV” value in the series on HIV (setting [9]) is recorded as “Not active (4)”. The “IC50 ± STD (nM) (N = x) HSV” value in the series on HSV (setting [9]) is “Not active (1)”. For the same molecule, the “IC50 ± STD (nM) (N = x) NDV” value in the series with NDV was “Not active (2)”. Besides, the “Abs Max” value in series [1] was determined as 405 nm.
In general, IC50 refers to the point on the concentration scale where inhibition reaches its midpoint. As for `CCN1C(=O)/C(=C/c2ccc(-c3ccccc3)o2)OC1=S` [JL101, (Z)-3-ethyl-5-((5-phenylfuran-2-yl)methylene)-2-thioxooxazolidine-4-one], the IC50 was greater than 1000 nM in the series with HIV (setting [10]) and greater than 1000 nM with NDV (avian paramyxovirus 1, Vero).
Consider `CCN1C(=S)O/C(=C\c2ccc(-c3ccccc3)o2)C1=S` [JL102, (Z)-3-ethyl-5-((5-phenylfuran-2-yl)methylene)oxazolidine-2,4-dithione], for which the “EC50 fold lower than LJ001's” value in the series on NDV is recorded as “about 10 fold”. The EC50 with Hela cells is roughly 0.4 µM. In addition, the half-maximal inhibitory concentration (IC50) in the series with lipid-enveloped viruses [2] was roughly 0.04 µM. Also, the “inhibition of CMV infection” value in [3] is listed as “inhibit the infection”. Besides, the “inhibition of SFV infection” value in series [4] is “inhibit the infection”. Besides, in [5] (10 mg/kg ip single dose), the clinical observations entry is given as “appeared normal”. Moreover, the “toxicity in vivo compared to the rhodanine derivatives” value in series [5] is “less toxicity”. The bioavailability in series [6] (ip, 10 mg/kg) was roughly 50%; in series [6] (po, 100 mg/kg) it was 3.1 to 105%.
The term EC90 denotes the concentration needed for an effect of 90%. Consider `CCN1C(=S)O/C(=C\c2ccc(-c3ccccc3OC)o2)C1=S` [JL103, (Z)-3-ethyl-5-((5-(2-methoxyphenyl)furan-2-yl)methylene)oxazolidine-2,4-dithione], for which the IC50 was 3 nM in the series on HIV (setting [10]); 2.3 ± 2.7 nM in the series on HSV (setting [9]); 7 nM with NDV (avian paramyxovirus 1, Vero); roughly 0.005 µM with lipid-enveloped viruses [2]. For the same molecule, the “EC50 fold lower than compound 1's” value in the series with NDV is reported as “about 10 fold”. In addition, the EC90 in the series on NDV (avian paramyxovirus 1, Vero, read-out: EC90 antiviral activity on NDV) is roughly 0.015 µM. The absorption peak result in series [1] is recorded as “about 500 nm”. In series [1], the “Abs Max” value was 516 nm. Moreover, the “Relative integrated area from 400 to 700 nm” value in series [1] stood at 153. Also, the “light absorbed relative to LJ001 (integrated area 400-700 nm)” value in series [1] (times more than LJ001) is 1.53 times. Also, the “KT × 10^−7” value in series [7] was determined as 7.8 ± 0.6 M^−1s^−1. Moreover, in [3], the “inhibition of CMV infection” value was “inhibit the infection”. Also, the “inhibition of SFV infection” value in series [4] is recorded as “inhibit the infection”. In the series on Toxoplasma gondii, the “inhibition of parasite attachment and invasion” value is “inhibited parasite attachment and invasion”. Moreover, in [5] (10 mg/kg ip single dose), the clinical observations entry is given as “appeared normal”. The “toxicity in vivo compared to the rhodanine derivatives” value in series [5] is given as “less toxicity”. The bioavailability in [6] (ip, 10 mg/kg) was roughly 50%; in series [6] (po, 100 mg/kg), 3.1 to 105%.
In the case of `CCN1C(=O)/C(=C/c2ccc(-c3ccccc3)o2)NC1=S` [JL104, (Z)-3-ethyl-5-((5-phenylfuran-2-yl)methylene)-2-thioxoimidazolidin-4-one], in the series on HIV (setting [9]), the “IC50 ± STD (nM) (N = x) HIV” value was “Not active”. Further, the IC50 in the series on HSV (setting [9]) is greater than 500000 nM; in the series with NDV (avian paramyxovirus 1, Vero), greater than 500000 nM.
Take `CCN1C(=S)N/C(=C\c2ccc(-c3ccccc3)o2)C1=S` [JL105, (Z)-3-ethyl-5-((5-phenylfuran-2-yl)methylene)imidazolidine-2,4-dithione]: the IC50 in the series with NDV (avian paramyxovirus 1, Vero) is greater than 100000 nM. Also, the “Abs Max” value in [1] was 521 nm.
Turning to `CCN1C(=S)OC(Cc2ccc(-c3ccccc3)o2)C1=S` (stereo not shown) [JL107], the half-maximal inhibitory concentration (IC50) in the series with NDV (avian paramyxovirus 1, Vero) was 928 nM. The “inhibition of parasite attachment and invasion” value is “most potent inhibition” in the series on Toxoplasma gondii; “inhibited parasite attachment and invasion” in the series on Toxoplasma gondii (listed as 107).
`CCN1C(=S)O/C(=C\c2ccc(-c3c(OC)cccc3OC)o2)C1=S` [JL111, (Z)-3-Ethyl-5-(5-(2,6-dimethoxyphenyl)-furan-2-ylmethylene)oxazolidine-2,4-dithione]: in the series with NDV (avian paramyxovirus 1, Vero), the IC50 was found to be 12 nM. Besides, the “Abs Max” value in series [1] stood at 499 nm.
As to `CCN1C(=S)O/C(=C\c2cc3ccccc3o2)C1=S` [JL113, (Z)-5-(benzofuran-2-ylmethylene)-3-ethyloxazolidine-2,4-dithione], the IC50 in the series on NDV (avian paramyxovirus 1, Vero) came to 865 nM.
Turning to `CCN1C(=S)O/C(=C\c2ccc(-c3cccc(OC)c3)o2)C1=S` [JL117, (Z)-3-Ethyl-5-(5-(3-methoxyphenyl)-furan-2-ylmethylene)oxazolidine-2,4-dithione], the IC50 came to 20 nM in the series with HSV (setting [9]) and 5 nM in the series on NDV (avian paramyxovirus 1, Vero). Also, the “Abs Max” value in series [1] worked out at 504 nm.
Consider `CCN1C(=S)O/C(=C\c2ccc(-c3ccc(OC)cc3)n2C)C1=S` [JL119, (Z)-3-Ethyl-5-((5-(4-methoxyphenyl)-1-methyl-1H-pyrrole-2-yl)methylene)oxazolidine-2,4-dithione], for which the IC50 in the series with NDV (avian paramyxovirus 1, Vero) was found to be 6 nM. Moreover, the “Abs Max” value in [1] is listed as 551 nm.
Consider `CCN1C(=O)O/C(=C\c2ccc(-c3ccccc3)o2)C1=O` [JL121, (Z)-3-ethyl-5-((5-phenylfuran-2-yl)methylene)oxazolidine-2,4-dione], for which the “IC50 ± STD (nM) (N = x) HSV” value in the series on HSV (setting [9]) is “Not active (1)”. For the same molecule, the IC50 in the series with NDV (avian paramyxovirus 1, Vero) was greater than 500000 nM. For the same molecule, in [7], the “KT × 10^−7” value was 2.5 ± 0.2 M^−1s^−1.
`CCN1C(=S)O/C(=C\c2ccc(-c3c(OC)cc(OC)cc3OC)o2)C1=S` [JL122, (Z)-3-Ethyl-5-(5-(2,4,6-tiimethoxyphenyl)-furan-2-ylmethylene)oxazolidine-2,4-dithione]: the IC50 with HSV (setting [9]) turned out to be 3 ± 1 nM; in the series on NDV (avian paramyxovirus 1, Vero), 1 nM. The “Abs Max” value in series [1] amounted to 547 nm. Also, the “HIV inactivation in packed RBC (luciferase activity, RLU)” value with HIV (IIIB) was “dramatically decrease the luciferase activity to near-background levels”.
Take `CCN1C(=S)O/C(=C\c2ccc(-c3ccc(N(C)C)cc3)n2C)C1=S` [JL123]: the IC50 in the series on HSV (setting [9]) was 75 ± 45 nM; in the series with NDV (avian paramyxovirus 1, Vero) it was 49 nM. Also, the “Abs Max” value in [1] amounted to 593 nm.
Broadly, the half-life is the time needed for the level to fall by half in the phase considered. A higher half-life goes with slow decline. With `C=CCN1C(=O)/C(=C/c2ccc(-c3ccccc3)o2)SC1=S` [LJ001, reference compound], the half-maximal inhibitory concentration (IC50) was 183 ± 272 nM with HIV (Human immunodeficiency virus 1, read-out: IC50 ± STD (nM) (N = x) HIV); 35 ± 48 nM in the series with HSV; 207 nM in the series with NDV (avian paramyxovirus 1, Vero); roughly 1 µM with lipid-enveloped viruses [8] (read-out: IC50 viral infection common for all viruses tested). Also, the absorption peak result in series [1] is reported as “about 440 nm”. In series [1], the “Abs Max” value was determined as 457 nm. The “Relative integrated area from 400 to 700 nm” value in series [1] is reported as 100. The “KT × 10^−7” value in [7] is listed as 1.0 ± 0.1 M^−1s^−1. Further, the “HIV inactivation in packed RBC (luciferase activity, RLU)” value in the series with HIV (IIIB) was “unable to inactivate HIV”. Besides, in the series on Toxoplasma gondii, the “inhibition of parasite attachment and invasion” value is reported as “highly effective”. Moreover, the “IC95 viral infection common for all viruses tested” value with lipid-enveloped viruses [8] was roughly 10 µM. In addition, the clinical observations entry in series [5] (5 mg/kg ip single dose) is “appeared normal”; in series [5] (10 mg/kg ip single dose), 2 were sacrificed in moribund condition and 1 was found dead. The exposure result in [6] (10 mg/kg iv, 5 mg/kg ip, 10 and 100 mg/kg po) was “minimal exposure”. The molecule further showed an elimination in [6] (mice, single dose) of roughly 700 mL/min/kg. In addition, in series [6] (mice, single dose), the half-life is 12 min.
On to `Cc1c(C)c2c(c(C)c1O)CC[C@@](C)(CCC[C@H](C)CCC[C@H](C)CCCC(C)C)O2` [alpha-tocopherol, reference compound], for which, in the series with NDV, the “effect of antioxidant on antiviral activity of JL103” value is reported as “blocks the antiviral activity”.

The values above are taken from patent US9139575B2, “Broad spectrum antiviral and antiparasitic agents” (priority 2010, dated 2015).
